Read-outs that look alike come from different tables or passages of the source.
Assays:
AHR [1] = target: T1, AHR (Homo sapiens, UniProt P35869); assay: DRE-Luciferase Reporter Assay, HepG2, agonist; assay type: cell-based; conditions: HepG2 cells, agonist mode
T1 construct: endogenous in cells; host or cells: HepG2 (human), DRE-luciferase reporter stably or transiently transfected
T1 sequence (P35869 11-848): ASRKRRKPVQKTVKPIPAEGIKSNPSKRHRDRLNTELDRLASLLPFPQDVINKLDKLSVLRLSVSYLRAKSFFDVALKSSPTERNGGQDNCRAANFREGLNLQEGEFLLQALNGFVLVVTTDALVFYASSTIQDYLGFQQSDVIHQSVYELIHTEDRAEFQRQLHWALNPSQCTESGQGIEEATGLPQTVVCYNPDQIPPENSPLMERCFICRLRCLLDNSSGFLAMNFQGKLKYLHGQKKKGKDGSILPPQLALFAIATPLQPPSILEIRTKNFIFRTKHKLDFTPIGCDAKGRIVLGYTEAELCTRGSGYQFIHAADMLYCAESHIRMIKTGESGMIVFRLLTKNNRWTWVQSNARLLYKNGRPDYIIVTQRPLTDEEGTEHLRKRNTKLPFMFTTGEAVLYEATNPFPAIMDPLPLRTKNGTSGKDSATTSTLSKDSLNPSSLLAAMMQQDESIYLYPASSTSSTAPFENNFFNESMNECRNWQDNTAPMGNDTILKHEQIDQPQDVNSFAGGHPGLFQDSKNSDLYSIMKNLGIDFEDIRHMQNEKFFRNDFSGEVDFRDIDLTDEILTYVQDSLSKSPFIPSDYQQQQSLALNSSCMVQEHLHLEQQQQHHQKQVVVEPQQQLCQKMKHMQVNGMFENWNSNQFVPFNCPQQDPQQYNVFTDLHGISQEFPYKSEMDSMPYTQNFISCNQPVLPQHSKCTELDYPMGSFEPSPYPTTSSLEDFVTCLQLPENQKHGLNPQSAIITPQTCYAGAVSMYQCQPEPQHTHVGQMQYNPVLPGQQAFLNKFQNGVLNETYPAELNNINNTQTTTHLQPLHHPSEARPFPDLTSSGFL
Experimental: (§1) AHR binds to Dioxin Responsive Elements (DRE) upstream of genes that it activates. One measure of AHR activity is activation of a reporter gene, such as luciferase, downstream of one or multiple DRE elements. Luciferase activity will reflect activation and inhibition of AHR in the cells expressing this reporter.
(§2) Murine Hepa1-6 or Hepa-1c1c7 or other murine cell line with a DRE-luciferase reporter either stably or transiently transfected are plated in media in plates (96-well, 384-well or other plates) and incubated overnight at 37 C in a CO2 incubator. Likewise, human HepG2 or other human cell line with a DRE-luciferase reporter either stably or transiently transfected are plated in media in plates (96-well, 384-well or other plates) and incubated overnight at 37 C in a CO2 incubator.
(§3) The next day, an AHR agonist compound is added. Cells are incubated for 6, 16 or 24 hours or another time point and then lysed for determination of luciferase activity as a read-out of the AHR activation. Luciferase can be measured with a commercial kit such as the Promega Luciferase kit or any kit or reagents that provide the luciferin substrate for measuring luciferase activity. The level of luciferase with only activating ligand (e.g. such as TCDD, kynurenine, ITE (2-(1H-indole-3-ylcarbonyl)-4-thiazolecarboxylic methyl ester), VAF347, BNF (beta-naphthoflavone), ICZ (6-formylindolo(3,2-b) carbazole or other AHR ligands) added is the maximum signal while the luciferase with no ligand is the minimum signal. EC50s can be determined as the concentration which activates half of the maximum luciferase activity.

AHR [2] = target: T2, AHR (Mus musculus, UniProt P30561); assay: P450 CYP1A1 Luciferase Assay, Hepa1.6, agonist; assay type: cell-based, murine; conditions: Hepa1.6 cells, CYP1A1 enzyme activity read-out, agonist mode; Table 2
T2 construct: endogenous in cells; host or cells: Hepa1-6 / Hepa1.6 (murine hepatoma); DRE-luciferase reporter transfected in A3, no transfection in A2
Experimental: AHR binds to Dioxin Responsive Elements (DRE) upstream of genes that it activates. One measure of AHR activity is P450 CYP1A1 protein levels determined by measuring CYP1A1 enzyme activity using a luminogenic CYP1A1 luciferin-based substrate. Luciferase activity will reflect CYP1A1 activity resulting from activation of AHR in the cells.
Murine Hepa1-6 or Hepa-1c1c7 or other murine cell line, human HepG2 or other human cell line are plated in media (96-well, 384-well or other plates) and incubated overnight at 37 C in a CO2 incubator.
as §3, with “lysed and incubated with a CYP1A1 luciferase-based substrate (e.g., Luciferin-CEE)” for “lysed”, “3, 6, or 12 hours of another time point. Determination” for “determination”, “CYP1A1 enzyme activity” for “the AHR activation. Luciferase”, “P450 Glo CYP1A1 detection reagent” for “Luciferase kit”, “provide” for “provide the luciferin substrate”, “(e.g.,” for “(e.g.”

AHR [3] = target: T2, AHR; assay: DRE-Luciferase Reporter Assay, Hepa1.6, agonist; assay type: cell-based, murine; conditions: Hepa1.6 cells, agonist mode
Experimental: as §1, §2, §3

[4] = Table 2, read-out: DRE-Luc HepG2 - Agonist: Average EC50
[5] = DRE-Luc Hepa1.6 - Agonist: Average EC50 (μM), Table 3
[6] = Table 3, read-out: DRE-Luc HepG2 - Agonist: Average EC50
[7] = Table 3, read-out: DRE-Luc Hepa1.6 - Agonist: Average EC50

T2 sequence (P30561 10-805 limits assumed): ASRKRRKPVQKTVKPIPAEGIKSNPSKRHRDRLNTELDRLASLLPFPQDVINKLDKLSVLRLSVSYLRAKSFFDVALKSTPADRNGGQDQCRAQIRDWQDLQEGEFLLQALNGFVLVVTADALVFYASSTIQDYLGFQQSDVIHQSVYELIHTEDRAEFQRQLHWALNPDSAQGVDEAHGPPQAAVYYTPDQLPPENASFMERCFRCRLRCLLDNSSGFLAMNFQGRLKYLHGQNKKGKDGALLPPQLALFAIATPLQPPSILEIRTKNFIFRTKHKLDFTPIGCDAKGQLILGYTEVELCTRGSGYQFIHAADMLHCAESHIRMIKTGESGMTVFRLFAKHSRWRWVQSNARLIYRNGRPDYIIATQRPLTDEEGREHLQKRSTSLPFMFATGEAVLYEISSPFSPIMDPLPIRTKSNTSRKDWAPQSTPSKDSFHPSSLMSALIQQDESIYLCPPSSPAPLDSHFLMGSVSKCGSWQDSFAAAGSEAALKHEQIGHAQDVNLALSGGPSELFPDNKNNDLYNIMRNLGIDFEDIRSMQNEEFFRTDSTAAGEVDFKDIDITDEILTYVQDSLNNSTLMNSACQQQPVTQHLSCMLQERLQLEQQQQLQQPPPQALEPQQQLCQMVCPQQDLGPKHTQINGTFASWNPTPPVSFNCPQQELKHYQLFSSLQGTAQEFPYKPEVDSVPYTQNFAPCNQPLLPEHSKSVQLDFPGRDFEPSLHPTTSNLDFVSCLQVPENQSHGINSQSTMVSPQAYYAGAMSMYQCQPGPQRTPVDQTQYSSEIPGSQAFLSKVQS
T2 sequence (P11499 whole entry partner): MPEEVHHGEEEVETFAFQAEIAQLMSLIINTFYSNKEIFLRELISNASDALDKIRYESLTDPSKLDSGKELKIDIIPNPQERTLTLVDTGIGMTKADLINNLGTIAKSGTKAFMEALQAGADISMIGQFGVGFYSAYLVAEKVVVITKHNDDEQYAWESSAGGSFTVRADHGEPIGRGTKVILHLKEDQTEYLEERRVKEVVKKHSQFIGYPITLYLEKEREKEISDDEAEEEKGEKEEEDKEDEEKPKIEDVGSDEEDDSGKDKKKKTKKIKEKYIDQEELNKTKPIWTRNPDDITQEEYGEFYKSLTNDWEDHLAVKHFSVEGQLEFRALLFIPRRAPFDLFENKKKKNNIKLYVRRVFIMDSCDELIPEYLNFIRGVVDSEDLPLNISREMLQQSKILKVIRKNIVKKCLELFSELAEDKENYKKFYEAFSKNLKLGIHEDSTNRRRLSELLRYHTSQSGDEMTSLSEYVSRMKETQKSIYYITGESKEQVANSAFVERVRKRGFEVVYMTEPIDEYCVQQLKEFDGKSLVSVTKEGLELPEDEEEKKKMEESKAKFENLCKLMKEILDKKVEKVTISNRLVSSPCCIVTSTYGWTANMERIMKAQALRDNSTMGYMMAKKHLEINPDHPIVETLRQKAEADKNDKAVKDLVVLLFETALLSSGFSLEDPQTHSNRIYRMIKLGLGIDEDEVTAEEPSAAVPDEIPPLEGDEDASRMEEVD
T2 sequence (O08915 whole entry partner): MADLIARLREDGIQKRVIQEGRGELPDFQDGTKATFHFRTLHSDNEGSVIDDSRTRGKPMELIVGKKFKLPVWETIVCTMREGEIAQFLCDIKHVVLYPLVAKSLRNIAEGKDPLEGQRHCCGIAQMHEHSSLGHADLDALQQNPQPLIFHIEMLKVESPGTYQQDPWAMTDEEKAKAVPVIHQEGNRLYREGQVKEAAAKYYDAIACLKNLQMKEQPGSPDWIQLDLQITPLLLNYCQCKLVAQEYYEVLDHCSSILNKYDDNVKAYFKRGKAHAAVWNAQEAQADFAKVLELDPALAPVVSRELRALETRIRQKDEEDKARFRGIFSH

SMILES	EC50 (AHR [1]; [4]) [nM]	EC50 (AHR [2]) [nM]	EC50 (AHR [3]; [5]) [µM]	EC50 (AHR [1]; [6]) [nM]	EC50 (AHR [3]; [7]) [µM]
COc1ccc2c(C(=O)c3nc(C(C)C)cs3)c[nH]c2c1 [Compound I-2]	< 10	> 1000	–	–	–
O=C(c1nc([C@H]2CC[C@H](C(=O)O)CC2)cs1)c1c[nH]c2ccccc12 [Compound I-4]	100 to 1000	> 1000	–	–	–
O=C(O)CCCN1CCC(c2csc(C(=O)c3c[nH]c4ccccc34)n2)CC1 [Compound I-5]	100 to 1000	> 1000	–	–	–
CN1CCC(c2csc(C(=O)c3c[nH]c4ccccc34)n2)CC1 [Compound I-7]	100 to 1000	> 1000	–	–	–
C[N+]1(C)CCC(c2csc(C(=O)c3c[nH]c4ccccc34)n2)CC1 [Compound I-8]	100 to 1000	> 1000	–	–	–
O=C(c1nc([C@H]2CC[C@@H](C(=O)O)CC2)cs1)c1c[nH]c2ccccc12 [Compound I-9]	100 to 1000	> 1000	–	–	–
Cc1sc(C(=O)c2c[nH]c3ccccc23)nc1C(=O)OC1CC[N+](C)(C)CC1 [Compound I-10]	100 to 1000	> 1000	–	–	–
Cc1sc(C(=O)c2c[nH]c3ccccc23)nc1C(=O)OC(C)C [Compound I-11]	100 to 1000	> 1000	–	–	–
O=C(O)CCC(=O)N1CCC(c2csc(C(=O)c3c[nH]c4ccccc34)n2)CC1 [Compound I-18]	> 1000	> 1000	–	–	–
CC(C)c1csc(C(=O)c2c[nH]c3ccc(S(=O)(=O)O)cc23)n1 [Compound I-19]	> 1000	> 1000	–	–	–
C[N+](C)(C)CCCN1CCC(c2csc(C(=O)c3c[nH]c4ccccc34)n2)CC1 [Compound I-20]	> 1000	> 1000	–	–	–
C[N+](C)(C)CCC(=O)N1CCC(c2csc(C(=O)c3c[nH]c4ccccc34)n2)CC1 [Compound I-23]	> 1000	> 1000	–	–	–
O=C(c1nc([C@H]2CC[C@@H](O)CC2)cs1)c1c[nH]c2ccccc12 [Compound I-47]	> 1000	> 1000	–	–	–
CC(C)(C)c1csc(C(=O)c2c[nH]c3ccccc23)n1 [Compound I-61]	–	–	< 0.01	< 10	–
CC(C)c1csc(C(=O)c2c[nH]c3cc(C(=O)O)ccc23)n1 [Compound I-62]	–	–	> 1	> 1000	–
CC(C)c1csc(C(=O)c2c[nH]c3ccc(C(=O)O)cc23)n1 [Compound I-78, 3-(4-Isopropylthiazole-2-carbonyl)-1H-indole-5-carboxylic acid]	–	–	–	100 to 1000	> 1
CNc1sc(C(=O)c2c[nH]c3ccccc23)nc1C(=O)OC [Compound I-84, Methyl 2-(1H-indole-3-carbonyl)-5-(methylamino)thiazole-4-carboxylate]	–	–	< 0.01	< 10	–
CC(C)c1csc(C(=O)c2c[nH]c3c(C(=O)O)cccc23)n1 [Compound I-89]	–	–	–	> 1000	> 1
COC(=O)c1csc(C(=O)c2c[nH]c3cc([N+](=O)[O-])ccc23)n1 [Compound I-90]	–	–	0.01 to 0.1	10 to 100	–
COC(=O)c1nc(C(=O)c2c[nH]c3ccccc23)sc1Nc1ccccc1 [Compound I-91]	–	–	–	> 1000	> 1
O=C(c1nc(C(F)(F)F)cs1)c1c[nH]c2ccccc12 [Compound I-92]	–	–	< 0.01	< 10	–
COC(=O)c1csc(C(=O)c2c[nH]c3cccc(N)c23)n1 [Compound I-93]	–	–	0.01 to 0.1	100 to 1000	–
CC(C)c1csc(C(=O)c2c[nH]c3cc(C(=O)OCCOCCO)ccc23)n1 [Compound I-94]	–	–	–	> 1000	> 1
COC(=O)c1nc(C(=O)c2c[nH]c3ccccc23)sc1N(C)C [Compound I-95]	–	–	–	10 to 100	> 1
COC(=O)c1ccc2c(C(=O)c3nc(C(=O)OC)c(N)s3)c[nH]c2c1 [Compound I-96]	–	–	< 0.01	< 10	–
N#Cc1nc(C(=O)c2c[nH]c3ccccc23)sc1Br [Compound I-97]	–	–	–	100 to 1000	> 1
CC(C)c1csc(C(=O)c2c[nH]c3ccccc23)n1 [Compound P-2]	< 10	> 1000	–	–	–
CNC(=O)c1csc(C(=O)c2c[nH]c3ccccc23)n1 [Compound P-3]	–	> 1000	–	–	–
COC(=O)c1csc(C(=O)c2c[nH]c3ccccc23)n1 [Compound P-4]	10 to 100	> 1000	–	–	–
